Counter-ions that a name gives are not always drawn.
How the values were obtained:
HIV-1Ba-L [1] = assay: Co-culture model: drug-exposed human ectocervical explants washed, minced, co-cultured with JT-CCR5 cells, HIV-1Ba-L challenge; format: cell-based
Method: (§1) Cervical tissue was collected from pre-menopausal women undergoing therapeutic hysterectomies at the Albert Einstein–Montefiore Weiler Hospital (Bronx, NY, USA) under an IRB exempt protocol. Ectocervical tissue was cut into explants of approximately 3×3×3 mm prior to 24 h exposure to panel of unformulated drugs in 24-well plates. Extracellular free drug was removed by immersing explants in phosphate buffered saline (PBS) containing Ca^2+ before mincing explants into fragments smaller than 1 mm, which were resuspended in 200 μL complete medium and co-cultured with JT-CCR5 cells (1×10^5 cells/well) in triplicate wells of round-bottomed 96-well plates. Co-cultures were incubated at 37°C for 72 h to allow released drug to be transferred from the tissue to T cells prior to challenge with HIV-1Ba-L (approximately 10^3 TCID50). The inoculum was removed and co-cultured tissue and cells washed thrice with medium. HIV replication was assessed by measuring p24 levels by ELISA (Figure 2a).

HIV-1Ba-L [2] = assay: Parallel antiviral experiments with MVC in human PBMCs; format: cell-based; conditions: PHA-activated PBMCs; data not shown
HIV-1Ba-L [3] = assay: JT-CCR5 cells challenged with HIV-1Ba-L in the presence of drug (p24 ELISA); format: cell-based
Method: (§2) JT-CCR5 T cells in 24-well plates (1×10^6 cells/well) were exposed to varying concentrations of drugs diluted in complete medium for 24 h. The cells were then washed with 10 mL of medium, medium containing 10% human seminal plasma (SP), or not washed and then washed cells were resuspended in complete medium prior to transfer to round-bottomed 96-well plates and exposed to 10^3 TCID50 (50% tissue culture infective dose) HIV-1Ba-L for 2 h. Plates were centrifuged at 500 g for 5 min and supernatants were removed prior to each of 3 washing steps with 200 μL of medium. Cells were subsequently cultured in 200 μL complete medium and HIV replication was assessed 6 d post-infection by measuring p24 antigen by ELISA [34].

HIV = system: HIV; set-up: method as in PMID 16251317; conditions: drug present throughout the experiment ref 25; cited from earlier work
HIV-1Ba-L [4] = assay: Intracellular drug retention: JT-CCR5 cells exposed to drug 24 h, washed with medium or 10% seminal plasma, then HIV-1Ba-L challenge; format: cell-based; conditions: for protection of washed cells at the highest concentrations tested: 10 and 100 μM, cells washed with medium or SP; for antiviral activity after washing cells with medium or SP prior to challenge: JT-CCR5, 24 h drug exposure, TDF at >= 0.1 μM
Method: as §2

HIV-1Ba-L [5] = assay: Antiviral activity of macaque CVL in TZM-bl cells challenged with HIV-1Ba-L (luciferase); format: cell-based; conditions: CVL diluted 1:10 and 1:100, Days 7 and 14 post IVR insertion
Method: TZM-bl cells were plated at 3x10^4/well and allowed to adhere overnight before exposure to 10^3 TCID50 HIV-1Ba-L in the presence of CVL diluted 1:10 and 1:100 in complete DMEM in triplicate wells. Virus and drugs were left in culture for 48 h at 37°C and then removed by washing once with 200 μl PBS. Cells were lysed in 100 μl luciferase cell culture lysis reagent (Promega) and stored at -80°C until assessed for luciferase activity using luciferase assay buffer (Promega). Alternatively, TZM-bl cells were plated at 5x10^3/well in polyester transwell™ inserts with 1.0 μm pore size (Corning) and exposed basolaterally to CVL diluted 1:20 in complete DMEM overnight before apical challenge with the CCR5-tropic subtype C HIV isolate 97USNG30 (0, 10 and 100 TCID50). Wells with luciferase activity above background average + 2 standard deviations (cells exposed to CVL but no virus) were considered positive. To avoid contamination, frozen CVL was Gamma-irradiated on dry ice (1KGy) prior to use.

HIV-1Ba-L [6] = assay: NHP cervical biopsies co-cultured with PHA-activated human PBMC, HIV-1Ba-L challenge (p24 ELISA); format: cell-based
Method: as §1
Proximal and distal biopsies were collected and placed in 200 μL of complete medium and shipped to the Herold laboratory at 4°C. Biopsies were minced without washing and co-cultured with activated human PBMC in the presence of culture medium used during transport. Challenge and assessment of HIV replication were performed as described for human cervical explant tissue (Figure 2a).

[7] = pig, in vivo
Method: A 14-day IQP-0528 IVR biodistribution study using pigtail macaque monkeys was performed following protocols approved by the CDC Institutional Animal Care and Use Committee according to the Guide for the Care and Use of Laboratory Animals as previously described [36]. Briefly, animals were anesthetized with ketamine (3-10 mg/kg) prior to all collection procedures. A total of six macaques were used with two animals receiving placebo IVR and four animals receiving IQP-0528 (10% w/w) IVR. A pediatric speculum and forceps were used to insert IVRs in the posterior vagina proximal to the ectocervix on day 0 and left in place for 14 days. Tissue samples were collected with biopsy forceps (Miltex Townsend # 30–1445) near the vaginal introitus (distal to the ring) and the ectocervix (proximal to the ring) and shipped at 4°C to the Herold laboratory overnight. CVL samples were obtained by washing the vaginal vault with 5 mL normal saline; CVL samples were divided into aliquots, shipped and stored at -80°C.
IQP-0528 in biological samples was extracted and analyzed using LC-MS/MS at the Center for Human Toxicology (Utah). The lower limit of quantification (LLOQ) for this assay was 1 ng/mL of matrix. To convert weight/weight concentrations of IQP-0528 (nanograms IQP-0528 per milligram of vaginal fluid or tissue) to molarity (μM), vaginal fluid and tissue densities of 1.0 g/mL were assumed.

TZM-bl cells = assay: In vitro activity of IQP-0528 in TZM-bl cells; format: cell-based; conditions: not shown
[8] = explant treated ex vivo, washed, co-cultured with JT-CCR5
[9] = Human immunodeficiency virus 1; drug concentration during 24 h explant exposure; means ± SEM; read-out: Co-culture JT-CCR5 & explant tissue IC50
[10] = Human immunodeficiency virus 1; drug concentration during 24 h explant exposure; means ± SEM; read-out: Co-culture JT-CCR5 & explant tissue IC90
[11] = Human immunodeficiency virus 1, 144 h; challenge in the presence of drug; means ± SEM; read-out: JT-CCR5 Infection IC50
[12] = Human immunodeficiency virus 1, 144 h; challenge in the presence of drug; means ± SEM; read-out: JT-CCR5 Infection IC90
[13] = macaques with 10% w/w IQP-0528 IVR, co-culture with human PBMC

Maraviroc [MVC]
protection of co-cultured T cells by pretreated explant tissue (HIV-1Ba-L [1]; [8]): failed to protect co-cultured T cells | IC50 (HIV-1Ba-L [1]; read-out: Co-culture JT-CCR5 & explant tissue IC50; drug concentration during 24 h explant exposure; means ± SEM): > 100000 nM | IC90 (HIV-1Ba-L [1]; read-out: Co-culture JT-CCR5 & explant tissue IC90; drug concentration during 24 h explant exposure; means ± SEM): > 100000 nM | antiviral activity in human PBMCs compared to JT-CCR5 cells (HIV-1Ba-L [2]): no difference in the antiviral activity | antiviral activity (HIV-1Ba-L [3]; cells washed 2 h after viral inoculation, drug not re-added): only active in the low μM range | IC50 (HIV-1Ba-L [3]; read-out: JT-CCR5 Infection IC50; challenge in the presence of drug; means ± SEM): 1980 ± 850 nM | IC90 (HIV-1Ba-L [3]; read-out: JT-CCR5 Infection IC90; challenge in the presence of drug; means ± SEM): 54500 ± 13800 nM | antiviral activity (HIV): low nanomolar range | protection of washed cells at the highest concentrations tested (HIV-1Ba-L [4]): neither IQP-0528 or MVC completely protected the cells from infection | antiviral activity after washing cells with medium or SP prior to challenge (HIV-1Ba-L [4]): significantly reduced

Cc1cc(C)c(Nc2ccnc(Nc3ccc(C#N)cc3)n2)c(C)c1 [DPV, Dapivirine]
IC50 (HIV-1Ba-L [1]; [9]): 400 ± 200 nM | IC90 (HIV-1Ba-L [1]; [10]): 1100 ± 300 nM | protection of co-cultured T cells by pretreated explant tissue (HIV-1Ba-L [1]; [8]): significant protection | IC50 (HIV-1Ba-L [3]; [11]): 10 ± 10 nM | IC90 (HIV-1Ba-L [3]; [12]): 30 ± 20 nM | HIV inhibition (HIV-1Ba-L [4]; 1 μM, cells washed with SP prior to HIV challenge): failed to inhibit HIV infection | inhibition at 1 µM (HIV-1Ba-L [4]; Human immunodeficiency virus 1, 1 μM, cells washed with medium alone, mean ± SEM, read-out: protection (HIV inhibition)): 73.9 ± 13.8%

CC(C)OC(=O)OCOP(=O)(CO[C@H](C)Cn1cnc2c(N)ncnc21)OCOC(=O)OC(C)C [TDF, Tenofovir disoproxil fumarate]
IC50 (HIV-1Ba-L [1]; [9]): > 10000 nM | IC90 (HIV-1Ba-L [1]; [10]): > 10000 nM | protection of co-cultured T cells by pretreated explant tissue (HIV-1Ba-L [1]; [8]): not protected from viral infection | IC50 (HIV-1Ba-L [3]; [11]): 40 ± 10 nM | IC90 (HIV-1Ba-L [3]; [12]): 130 ± 20 nM | antiviral activity after washing cells with medium or SP prior to challenge (HIV-1Ba-L [4]): retained its antiviral activity

Cc1cc(C)cc(C(=O)c2c(C(C)C)c(=O)[nH]c(=O)n2CC2CC2)c1 [IQP-0528]
protection of TZM-bl cells challenged in the presence of CVL (HIV-1Ba-L [5]): significantly protected from infection | IC50 (HIV-1Ba-L [1]; drug concentration during 24 h explant exposure; means ± SEM; read-out: Co-culture JT-CCR5 & explant tissue IC50): 2900 ± 700 nM | IC90 (HIV-1Ba-L [1]; drug concentration during 24 h explant exposure; means ± SEM; read-out: Co-culture JT-CCR5 & explant tissue IC90): 10100 ± 700 nM | protection of co-cultured T cells by pretreated explant tissue (HIV-1Ba-L [1]; [8]): significant protection | protection in co-culture, fresh tissue vs tissue stored at -80°C (HIV-1Ba-L [1]; tissue fresh or frozen 24 h or 7 days after drug treatment): protective under all of these conditions | IC50 (HIV-1Ba-L [3]; challenge in the presence of drug; means ± SEM; read-out: JT-CCR5 Infection IC50): 190 ± 70 nM | IC90 (HIV-1Ba-L [3]; challenge in the presence of drug; means ± SEM; read-out: JT-CCR5 Infection IC90): 430 ± 160 nM | viral inhibition, distal biopsies, day 7 (HIV-1Ba-L [6]; [13]): 42.3% | viral inhibition, distal biopsies, day 14 (HIV-1Ba-L [6]; [13]): 59.2% | viral inhibition, proximal biopsies, day 7 (HIV-1Ba-L [6]; [13]): 53.0% | viral inhibition, proximal biopsies, day 14 (HIV-1Ba-L [6]; [13]): 71.7% | viral inhibition, biopsies of ring-treated macaques (range) (HIV-1Ba-L [6]; proximal and distal biopsies, days 7 and 14): 42-72% | protection of washed cells at the highest concentrations tested (HIV-1Ba-L [4]): neither IQP-0528 or MVC completely protected the cells from infection | IQP-0528 concentration in CVL, D7, Mean ± SEM [7]: 1360 ± 249 µg/mL | IQP-0528 concentration in CVL, D14, Mean ± SEM [7]: 940 ± 250 µg/mL | IQP-0528 concentration in cervical tissue, Distal D7, Mean ± SEM [7]: 0.85 ± 0.23 ng/mg of tissue | IQP-0528 concentration in cervical tissue, Distal D14, Mean ± SEM [7]: 14.65 ± 6.35 ng/mg of tissue | IQP-0528 concentration in cervical tissue, Proximal D7, Mean ± SEM [7]: 3.36 ± 1.36 ng/mg of tissue | IQP-0528 concentration in cervical tissue, Proximal D14, Mean ± SEM [7]: 28.08 ± 5.39 ng/mg of tissue | in vitro IC90 in TZM-bl cells (TZM-bl cells): 2.7 ng/mL

— paper PMC3827994, “Novel preclinical models of topical PrEP pharmacodynamics provide rationale for combination of drugs with complementary properties” (Retrovirology, 2013)
